# According to patent US20230374038A1, “MODULATORS OF CYSTIC FIBROSIS TRANSMEMBRANE CONDUCTANCE REGULATOR” (VERTEX PHARMACEUTICALS INCORPORATED, priority 2020, published 2023):
# Molecular target: T1, CFTR (Homo sapiens, UniProt P13569, DEL508-508)
# T1 construct: endogenous in cells; host or cells: primary human bronchial epithelial cells, F508del/MF genotype
# Experiment: HBE Assay: Ussing chamber assay of CFTR-mediated short-circuit currents in F508del/MF-HBE cells with 1 μM Ivacaftor
# Type: cell-based
# Conditions: range of concentrations with 1 μM Ivacaftor, 18-24 hours, 20% human serum
# Experimental: Ussing chamber experiments were performed using human bronchial epithelial (HBE) cells derived from CF subjects heterozygous for F508del and a minimal function CFTR mutation (F508del/MF-HBE) and cultured as previously described (Neuberger T, Burton B, Clark H, Van Goor F Methods Mol Biol 2011:741:39-54). After four days the apical media was removed, and the cells were grown at an air liquid interface for >14 days prior to use.
# (§1) To isolate the CFTR-mediated short-circuit (ISC) current, F508del/MF-HBE grown on Costar® Snapwell™ cell culture inserts were mounted in an Ussing chamber and the transepithelial ISC was measured under voltage-clamp recording conditions (Vhold=0 mV) at 37° C. The basolateral solution contained (in mM) 145 NaCl, 0.83 K2HIPO4, 3.3 KH2PO4, 1.2 MgCl2, 1.2 CaCl2), 10 Glucose, 10 HEPES (pH adjusted to 7.4 with NaOH) and the apical solution contained (in mM) 145 NaGluconate, 1.2 MgCl2, 1.2 CaCl2), 10 glucose, 10 HEPES (pH adjusted to 7.4 with NaOH) and 30 μM amiloride to block the epithelial sodium channel. Forskolin (20 μM) was added to the apical surface to activate CFTR, followed by apical addition of a CFTR inhibitor cocktail consisting of BPO, GlyH-101, and CFTR inhibitor 172 (each at 20 μM final assay concentration) to specifically isolate CFTR currents. The CFTR-mediated ISC (μA/cm^2) for each condition was determined from the peak forskolin response to the steady-state current following inhibition.
# The activity of the CFTR corrector compounds on the CFTR-mediated ISC was determined in Ussing chamber studies as described above. The F508del/MF-HBE cell cultures were either incubated with the corrector compounds at a range of concentrations in combination with 1 μM Ivacaftor or were incubated with the corrector compounds at a single fixed concentration of 10 μM in combination with 1 μM Ivacaftor for 18-24 hours at 37° C. and in the presence of 20% human serum. The concentration of corrector compounds with 1 μM Ivacaftor during the 18-24 hours incubations was kept constant throughout the Ussing chamber measurement of the CFTR-mediated ISC to ensure compounds were present throughout the entire experiment.
# as §1, with “K2HPO4,” for “K2HIPO4,”
# T1 sequence (P13569 with tags, fused parts or gaps DEL508-508): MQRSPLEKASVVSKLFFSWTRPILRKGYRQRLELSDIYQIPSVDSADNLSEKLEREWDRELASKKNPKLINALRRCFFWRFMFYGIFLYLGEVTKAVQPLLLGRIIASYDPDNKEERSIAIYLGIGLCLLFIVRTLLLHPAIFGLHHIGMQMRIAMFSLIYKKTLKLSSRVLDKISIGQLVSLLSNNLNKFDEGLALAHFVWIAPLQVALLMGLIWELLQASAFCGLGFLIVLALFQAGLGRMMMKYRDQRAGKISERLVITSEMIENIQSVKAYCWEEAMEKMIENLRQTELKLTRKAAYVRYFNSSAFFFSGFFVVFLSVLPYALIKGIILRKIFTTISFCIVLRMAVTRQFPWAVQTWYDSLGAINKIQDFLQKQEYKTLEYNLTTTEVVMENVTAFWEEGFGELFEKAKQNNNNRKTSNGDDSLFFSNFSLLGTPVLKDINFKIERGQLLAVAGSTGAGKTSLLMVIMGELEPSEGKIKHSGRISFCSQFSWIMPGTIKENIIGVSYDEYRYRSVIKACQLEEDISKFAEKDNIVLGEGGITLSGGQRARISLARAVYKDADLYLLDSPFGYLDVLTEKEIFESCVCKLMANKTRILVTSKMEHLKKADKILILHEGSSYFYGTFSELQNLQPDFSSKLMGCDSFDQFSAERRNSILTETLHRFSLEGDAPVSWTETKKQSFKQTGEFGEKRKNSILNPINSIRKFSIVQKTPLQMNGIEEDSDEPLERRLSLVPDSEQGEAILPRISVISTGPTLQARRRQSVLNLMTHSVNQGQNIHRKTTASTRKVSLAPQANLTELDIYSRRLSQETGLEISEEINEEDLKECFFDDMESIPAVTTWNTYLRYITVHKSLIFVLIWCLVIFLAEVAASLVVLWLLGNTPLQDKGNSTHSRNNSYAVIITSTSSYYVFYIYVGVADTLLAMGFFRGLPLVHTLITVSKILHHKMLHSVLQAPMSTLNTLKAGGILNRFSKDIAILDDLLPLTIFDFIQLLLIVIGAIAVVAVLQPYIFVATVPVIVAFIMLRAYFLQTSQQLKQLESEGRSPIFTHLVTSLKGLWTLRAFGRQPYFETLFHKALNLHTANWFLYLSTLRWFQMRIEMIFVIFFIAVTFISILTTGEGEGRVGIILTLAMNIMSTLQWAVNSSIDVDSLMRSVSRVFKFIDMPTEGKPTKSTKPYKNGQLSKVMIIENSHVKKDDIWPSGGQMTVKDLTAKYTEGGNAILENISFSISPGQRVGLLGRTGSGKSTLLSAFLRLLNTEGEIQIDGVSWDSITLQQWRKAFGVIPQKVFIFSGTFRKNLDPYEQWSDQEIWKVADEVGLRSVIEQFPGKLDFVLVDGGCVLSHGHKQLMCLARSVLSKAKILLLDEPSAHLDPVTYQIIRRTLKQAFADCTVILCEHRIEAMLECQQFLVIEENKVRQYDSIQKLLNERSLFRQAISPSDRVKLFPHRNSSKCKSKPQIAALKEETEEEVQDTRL
row,EC50 [nM],Structure (SMILES)
1,< 1000,"CCOc1cnc(CN2C(=O)c3cccc(c3)S(=O)(=O)Nc3nc(c(C)c(-c4c(C)cccc4CC(C)C)n3)OC[C@H]2CC(C)(C)C)nc1 (atropisomer, axis not shown) [Compound 339]"
2,< 1000,Cc1cccc(C)c1-c1nc2nc(c1F)OC[C@@H](CC(C)C)N(Cc1ncc(N3CCC(C)(C)C3)cn1)C(=O)c1cccc(c1)S(=O)(=O)N2 [Compound 342]
3,< 1000,Cc1cccc(C)c1-c1nc2nc(c1C)OC[C@@H](CC1CC1)N(Cc1ncc(OC3CCC3)cn1)C(=O)c1cccc(c1)S(=O)(=O)N2 [Compound 346]

# Same assay, conditions: single fixed concentration of 10 μM, with 1 μM Ivacaftor, 20% human serum
row,Structure (SMILES),HBE Activity at 10 μM
1,"Cc1cccc(CC2CCCC2)c1-c1nc2nc(c1C)OC[C@@H](CC(C)(C)C)N(Cc1ccc(N3CCOCC3)cn1)C(=O)c1cccc(c1)S(=O)(=O)N2 (atropisomer, axis not shown) [Compound 288]",+++ (+++ is >600%)
2,"Cc1cccc(CC(C)(C)C)c1-c1nc2nc(c1C)OC[C@@H](CC(C)(C)C)N(Cc1ncc(N3CCC(C)(C)C3)cn1)C(=O)c1cccc(c1)S(=O)(=O)N2 (atropisomer, axis not shown; (M)) [Compound 214, (5M,11R)-11-(2,2-dimethylpropyl)-6-[2-(2,2-dimethylpropyl)-6-methylphenyl]-12-{[5-(3,3-dimethylpyrrolidin-1-yl)pyrimidin-2-yl]methyl}-7-methyl-9-oxa-2λ^6-thia-3,5,12,19-tetraazatricyclo[12.3.1.14,8]nonadeca-1(17),4(19),5,7,14(18),15-hexaene-2,2,13-trione]",++ (++ is 30-60%)
3,"Cc1cccc(CC(C)C)c1-c1nc2nc(c1C(F)(F)F)OC[C@@H](CC(C)(C)C)N(Cc1ccc(N3CCOCC3)cn1)C(=O)c1cccc(c1)S(=O)(=O)N2 (atropisomer, axis not shown) [Compound 247]",++ (++ is 30-60%)
4,"Cc1cccc(CC2CCOCC2)c1-c1nc2nc(c1C)OC[C@@H](CC(C)(C)C)N(Cc1ccc(N3CCOCC3)cn1)C(=O)c1cccc(c1)S(=O)(=O)N2 (atropisomer, axis not shown) [Compound 274]",++ (++ is 30-60%)

# The next lines start with the values.
row,HBE Activity at 10 μM,Structure (SMILES)
1,+++ (+++ is >600%),"Cc1cccc(CC2CCCC2)c1-c1nc2nc(c1C)OC[C@@H](CC(C)(C)C)NC(=O)c1cccc(c1)S(=O)(=O)N2 (atropisomer, axis not shown) [Compound 224]"
2,+++ (+++ is >600%),"Cc1cccc(CC(C)C)c1-c1nc2nc(c1C)OC[C@@H](CC(C)(C)C)NC(=O)c1cccc(c1)S(=O)(=O)N2 (atropisomer, axis not shown) [Compound 227]"

# Same assay, conditions: with 1 μM Ivacaftor, 18-24 hours, 20% human serum
Structure (SMILES),EC50 [nM],HBE Max Activity
Cc1c2nc(nc1-c1ccccc1C(C)C)NS(=O)(=O)c1cccc(c1)C(=O)N(Cc1ccc(N3CCOCC3)cn1)[C@H](CC(C)(C)C)CO2 [Compound 182],< 1000,+++ (+++ is >600%)
Cc1cccc(C)c1-c1nc2nc(c1C)OC[C@@H](CC(C)(C)C)N(Cc1ncc(N3CCC(C)(C)C3)cn1)C(=O)c1cccc(c1)S(=O)(=O)N2 [Compound 191],< 1000,+++ (+++ is >600%)
"Cc1cccc(CC(C)(C)C)c1-c1nc2nc(c1C)OC[C@@H](CC(C)(C)C)N(Cc1ncc(N3CCC(C)(C)C3)cn1)C(=O)c1cccc(c1)S(=O)(=O)N2 (single isomer, unassigned) [Compound 215]",< 1000,+++ (+++ is >600%)
"Cc1cccc(CC2CCCCC2)c1-c1nc2nc(c1C(F)(F)F)OC[C@@H](CC(C)(C)C)N(Cc1ncc(N3CCOCC3)cn1)C(=O)c1cccc(c1)S(=O)(=O)N2 (atropisomer, axis not shown) [Compound 244]",< 1000,+++ (+++ is >600%)
"Cc1cccc(CC2CCCCC2)c1-c1nc2nc(c1C)OC[C@@H](CC(C)(C)C)N(Cc1ccc(N3CCOCC3)cn1)C(=O)c1cccc(c1)S(=O)(=O)N2 (single isomer, unassigned) [Compound 206]",< 1000,+++ (+++ is >600%)
"COc1ccc(CN2C(=O)c3cccc(c3)S(=O)(=O)Nc3nc(c(C)c(-c4c(C)cccc4CC4CCCCC4)n3)OC[C@H]2CC(C)(C)C)nc1 (atropisomer, axis not shown) [Compound 301]",< 1000,+++ (+++ is >600%)
"Cc1cccc(C2CC2)c1-c1nc2nc(c1C)OC[C@@H](CC(C)(C)C)N(Cc1ncc(N3CCOCC3)cn1)C(=O)c1cccc(c1)S(=O)(=O)N2 (atropisomer, axis not shown; (P)) [Compound 216, (5P,11R)-6-(2-Cyclopropyl-6-methyl-phenyl)-11-(2,2-dimethylpropyl)-7-methyl-12-[(5-morpholinopyrimidin-2-yl)methyl]-2,2-dioxo-9-oxa-2λ^6-thia-3,5,12,19-tetrazatricyclo[12.3.1.14,8]nonadeca-1(18),4(19),5,7,14,16-hexaen-13-one]",< 1000,+++ (+++ is >600%)
"Cc1cccc(C2CC2)c1-c1nc2nc(c1C)OC[C@@H](CC(C)(C)C)N(Cc1ccc(N3CCOCC3)cn1)C(=O)c1cccc(c1)S(=O)(=O)N2 (atropisomer, axis not shown) [Compound 228]",< 1000,+++ (+++ is >600%)

# Other lines, results leading:
EC50 [nM],HBE Max Activity,Structure (SMILES)
< 1000,+++ (+++ is >600%),"Cc1cccc(CC(C)C)c1-c1nc2nc(c1C)OC[C@@H](CC(C)(C)C)N(Cc1ncc(N(C)C)cn1)C(=O)c1cccc(c1)S(=O)(=O)N2 (atropisomer, axis not shown) [Compound 236]"
< 1000,+++ (+++ is >600%),"Cc1cccc(CC(C)C)c1-c1nc2nc(c1C)OC[C@@H](CC(C)C)N(Cc1ncc(N3CCC(C)(C)C3)cn1)C(=O)c1cccc(c1)S(=O)(=O)N2 (atropisomer, axis not shown) [Compound 241]"
< 1000,+++ (+++ is >600%),"Cc1cccc(C)c1-c1nc2nc(c1C)OC[C@@H](CC(C)(C)C)N(c1cnn(C)c1Br)C(=O)c1cccc(c1)S(=O)(=O)N2 [Compound 56, (11R)-12-(5-Bromo-1-methyl-pyrazol-4-yl)-6-(2,6-dimethylphenyl)-11-(2,2-dimethylpropyl)-7-methyl-2,2-dioxo-9-oxa-2λ^6-thia-3,5,12,19-tetrazatricyclo[12.3.1.14,8]nonadeca-1(18),4(19),5,7,14,16-hexaen-13-one]"
< 1000,+++ (+++ is >600%),"Cc1cccc(C(C)C)c1-c1nc2nc(c1C)OC[C@@H](CC(C)(C)C)N(Cc1ncc(N3CCOCC3)cn1)C(=O)c1cccc(c1)S(=O)(=O)N2 (single isomer, unassigned) [Compound 208]"
< 1000,+++ (+++ is >600%),"Cc1cccc(CC2CCCCC2)c1-c1nc2nc(c1C)OC[C@@H](CC(C)(C)C)N(Cc1cccc(N(C)C(C)C)n1)C(=O)c1cccc(c1)S(=O)(=O)N2 (atropisomer, axis not shown) [Compound 255]"
< 1000,+++ (+++ is >600%),"Cc1cccc(CC2CCCC2)c1-c1nc2nc(c1C)OC[C@@H](CC(C)(C)C)N(Cc1ncc(OC(C)C)cn1)C(=O)c1cccc(c1)S(=O)(=O)N2 (atropisomer, axis not shown) [Compound 266]"
< 1000,+++ (+++ is >600%),"COc1ccc(CN2C(=O)c3cccc(c3)S(=O)(=O)Nc3nc(c(C)c(-c4c(C)cccc4CC4CCCCC4)n3)OC[C@H]2CC(C)(C)C)nc1 (atropisomer, axis not shown) [Compound 302]"
< 1000,+++ (+++ is >600%),"Cc1cccc(CC2CCCCC2)c1-c1nc2nc(c1C)OC[C@@H](CC(C)(C)C)N(Cc1ncc(N(C)C)cn1)C(=O)c1cccc(c1)S(=O)(=O)N2 (atropisomer, axis not shown) [Compound 303]"

# Same assay, conditions: with 1 μM Ivacaftor, 18-24 hours, 20% human serum, compared to known Vertex corrector with 18 μM Tezacaftor and 1 μM Ivacaftor, read-out: HBE Max activity (%)
row,Emax [%],Structure (SMILES)
1,> 60,"CCOc1cnc(CN2C(=O)c3cccc(c3)S(=O)(=O)Nc3nc(c(C)c(-c4c(C)cccc4CC(C)C)n3)OC[C@H]2CC(C)(C)C)nc1 (atropisomer, axis not shown) [Compound 339]"
2,> 60,Cc1cccc(C)c1-c1nc2nc(c1F)OC[C@@H](CC(C)C)N(Cc1ncc(N3CCC(C)(C)C3)cn1)C(=O)c1cccc(c1)S(=O)(=O)N2 [Compound 342]
3,> 60,Cc1cccc(C)c1-c1nc2nc(c1C)OC[C@@H](CC1CC1)N(Cc1ncc(OC3CCC3)cn1)C(=O)c1cccc(c1)S(=O)(=O)N2 [Compound 346]
